The results in this text go back to patent publication US12173020B2, “New-type oxazolidinone compounds and preparation method therefor” (priority 2019, dated 2024).

Assay [1] concerns methicillin-resistant Staphylococcus aureus (MRSA). In words: agar dilution method, inhibitory effect on MRSA. Type of assay: cell-based. The settings on record: for MIC50: Staphylococcus aureus, read-out: Minimum inhibitory concentration (MIC50, μg/ml) MRSA. From the text:
(§1) In order to determine the antibacterial activity of these new oxazolidinone-based compounds, an agar dilution method was used to test the inhibitory effect on methicillin-resistant Staphylococcus aureus (MRSA) and vancomycin-resistant Enterococcus (VRE). The bacteria inhibition effect was expressed as minimum inhibitory concentration (MIC50, μg/ml) The test results are shown in the following table.
Background: Agar dilution tests growth on a series of plates holding different concentrations.

Assay [2] concerns vancomycin-resistant Enterococcus (VRE). In words: agar dilution method, inhibitory effect on VRE. Type of assay: cell-based. The settings on record: for MIC50: Enterococcus, read-out: Minimum inhibitory concentration (MIC50, μg/ml) VRE.
From the text: as §1

On to `CCCn1nnc(-c2ccc(-c3ccc(N4C[C@H](C(O)C(F)(F)F)OC4=O)cc3F)cn2)n1.O=P(O)(O)O` (stereo partly drawn) [compound 103, (R)-3-(3-fluoro-4-(6-(2-propyl-2H-tetrazol-5-yl)pyridin-3-yl)phenyl)-5-(1-hydroxy-2-trifluoroethyl) oxazolidin-2-one phosphate], for which, in assay [1], the “Minimum inhibitory concentration (MIC50, μg/ml) MRSA” value is 0.7 µg/mL. In addition, the “Minimum inhibitory concentration (MIC50, μg/ml) VRE” value in assay [2] amounted to 0.7 µg/mL.
`CCCn1nnc(-c2ccc(-c3ccc(N4C[C@@H](C(O)C(F)(F)F)OC4=O)cc3F)cn2)n1.O=P(O)(O)O` (stereo partly drawn) [compound 104, (S)-3-(3-fluoro-4-(6-(2-propyl-2H-tetrazol-5-yl)pyridin-3-yl)phenyl)-5-(1-hydroxy-2-trifluoroethyl) oxazolidin-2-one phosphate]: in assay [1], the “Minimum inhibitory concentration (MIC50, μg/ml) MRSA” value was 0.5 µg/mL. Also, the “Minimum inhibitory concentration (MIC50, μg/ml) VRE” value in assay [2] is 0.5 µg/mL.
In the case of `CCCn1nnc(-c2ccc(-c3ccc(N4C[C@H](C(C)O)OC4=O)cc3F)cn2)n1.O=P(O)(O)O` (stereo partly drawn) [compound 105, (R)-3-(3-fluoro-4-(6-(2-propyl-2H-tetrazol-5-yl)pyridin-3-yl)phenyl)-5-(1-hydroxyethyl) oxazolidin-2-one phosphate], the results for the MIC50 in assay [1] and in assay [2] were 1.4 µg/mL and 1.3 µg/mL, respectively.
Consider `CCCn1nnc(-c2ccc(-c3ccc(N4C[C@@H](C(C)O)OC4=O)cc3F)cn2)n1.O=P(O)(O)O` (stereo partly drawn) [compound 106, (S)-3-(3-fluoro-4-(6-(2-propyl-2H-tetrazol-5-yl)pyridin-3-yl)phenyl)-5-(1-hydroxyethyl) oxazolidin-2-one phosphate], for which the MIC50 in assay [1] is 1 µg/mL; in assay [2], 1.2 µg/mL.
On to `CCCn1nnc(-c2ccc(-c3ccc(N4C[C@H](C(O)CC)OC4=O)cc3F)cn2)n1.O=P(O)(O)O` (stereo partly drawn) [compound 107, (R)-3-(3-fluoro-4-(6-(2-propyl-2H-tetrazol-5-yl)pyridin-3-yl)phenyl)-5-(1-hydroxypropyl) oxazolidin-2-one phosphate], for which the MIC50 in assay [1] and in assay [2] was 0.8 µg/mL each time.
`CCCn1nnc(-c2ccc(-c3ccc(N4C[C@@H](C(O)CC)OC4=O)cc3F)cn2)n1.O=P(O)(O)O` (stereo partly drawn) [compound 108, (S)-3-(3-fluoro-4-(6-(2-propyl-2H-tetrazol-5-yl)pyridin-3-yl)phenyl)-5-(1-hydroxypropyl) oxazolidin-2-one phosphate]: the MIC50 worked out at 0.5 µg/mL in assay [1] and 0.4 µg/mL in assay [2].
For `CCCn1nnc(-c2ccc(-c3ccc(N4C[C@H](C(O)F)OC4=O)cc3F)cn2)n1.O=P(O)(O)O` (stereo partly drawn) [compound 109, (R)-3-(3-fluoro-4-(6-(2-propyl-2H-tetrazol-5-yl)pyridin-3-yl)phenyl)-5-(hydroxyfluoromethyl) oxazolidin-2-one phosphate], the MIC50 in assay [1] and in assay [2] was 0.2 µg/mL throughout.
With `CCCn1nnc(-c2ccc(-c3ccc(N4C[C@@H](C(O)F)OC4=O)cc3F)cn2)n1.O=P(O)(O)O` (stereo partly drawn) [compound 110, (S)-3-(3-fluoro-4-(6-(2-propyl-2H-tetrazol-5-yl)pyridin-3-yl)phenyl)-5-(hydroxyfluoromethyl) oxazolidin-2-one phosphate], the MIC50 in assay [1] and in assay [2] was 0.2 µg/mL in each case.
`O=C1O[C@@H](C(O)C(F)(F)F)CN1c1ccc(-c2ccc(-c3nnn(C4CC4)n3)nc2)c(F)c1.O=P(O)(O)O` (stereo partly drawn) [compound 111, (R)-3-(3-fluoro-4-(6-(2-cyclopropyl-2H-tetrazol-5-yl)pyridin-3-yl)phenyl)-5-(1-hydroxy-2-trifluoroethyl) oxazolidin-2-one phosphate]: the “Minimum inhibitory concentration (MIC50, μg/ml) MRSA” value in assay [1] is 0.3 µg/mL. In assay [2], the “Minimum inhibitory concentration (MIC50, μg/ml) VRE” value was 0.3 µg/mL.
Consider `O=C1O[C@H](C(OP(=O)(O)O)C(F)(F)F)CN1c1ccc(-c2ccc(-c3nnn(C4CC4)n3)nc2)c(F)c1` (stereo partly drawn) [compound 112, (S)-3-(3-fluoro-4-(6-(2-cyclopropyl-2H-tetrazol-5-yl)pyridin-3-yl)phenyl)-5-(1-hydroxy-2-trifluoroethyl) oxazolidin-2-one phosphate], for which the “Minimum inhibitory concentration (MIC50, μg/ml) MRSA” value in assay [1] was determined as 0.9 µg/mL. The “Minimum inhibitory concentration (MIC50, μg/ml) VRE” value in assay [2] was found to be 0.9 µg/mL.
As to `CC(O)[C@H]1CN(c2ccc(-c3ccc(-c4nnn(C5CC5)n4)nc3)c(F)c2)C(=O)O1.O=P(O)(O)O` (stereo partly drawn) [compound 113, (R)-3-(3-fluoro-4-(6-(2-cyclopropyl-2H-tetrazol-5-yl)pyridin-3-yl)phenyl)-5-(1-hydroxyethyl) oxazolidin-2-one phosphate], the MIC50 in assay [1] and in assay [2] was 0.2 µg/mL throughout.
For `CC(O)[C@@H]1CN(c2ccc(-c3ccc(-c4nnn(C5CC5)n4)nc3)c(F)c2)C(=O)O1.O=P(O)(O)O` (stereo partly drawn) [compound 114, (S)-3-(3-fluoro-4-(6-(2-cyclopropyl-2H-tetrazol-5-yl)pyridin-3-yl)phenyl)-5-(1-hydroxyethyl) oxazolidin-2-one phosphate], the MIC50 in assay [1] and in assay [2] was 0.3 µg/mL in each case.
`CCC(OP(=O)(O)O)[C@H]1CN(c2ccc(-c3ccc(-c4nnn(C5CC5)n4)nc3)c(F)c2)C(=O)O1` (stereo partly drawn) [compound 115, (R)-3-(3-fluoro-4-(6-(2-cyclopropyl-2H-tetrazol-5-yl)pyridin-3-yl)phenyl)-5-(1-hydroxypropyl)) oxazolidin-2-one phosphate]: the “Minimum inhibitory concentration (MIC50, μg/ml) MRSA” value in assay [1] was 0.5 µg/mL. For the same compound, the “Minimum inhibitory concentration (MIC50, μg/ml) VRE” value in assay [2] was 0.5 µg/mL.
`CCC(OP(=O)(O)O)[C@@H]1CN(c2ccc(-c3ccc(-c4nnn(C5CC5)n4)nc3)c(F)c2)C(=O)O1` (stereo partly drawn) [compound 116, (S)-3-(3-fluoro-4-(6-(2-cyclopropyl-2H-tetrazol-5-yl)pyridin-3-yl)phenyl)-5-(1-hydroxypropyl)) oxazolidin-2-one phosphate]: in assay [1], the “Minimum inhibitory concentration (MIC50, μg/ml) MRSA” value is 0.2 µg/mL. Moreover, in assay [2], the “Minimum inhibitory concentration (MIC50, μg/ml) VRE” value amounted to 0.3 µg/mL.
For `O=C1O[C@@H](C(O)F)CN1c1ccc(-c2ccc(-c3nnn(C4CC4)n3)nc2)c(F)c1.O=P(O)(O)O` (stereo partly drawn) [compound 117] the same measures were 0.4 µg/mL and 0.4 µg/mL.
For `O=C1O[C@H](C(F)OP(=O)(O)O)CN1c1ccc(-c2ccc(-c3nnn(C4CC4)n3)nc2)c(F)c1` (stereo partly drawn) [compound 118, (S)-3-(3-fluoro-4-(6-(2-cyclopropyl-2H-tetrazol-5-yl)pyridin-3-yl)phenyl)-5-(hydroxyfluoromethyl)) oxazolidin-2-one phosphate], in that order: 0.6 µg/mL and 0.6 µg/mL.
For `C=Cn1nnc(-c2ccc(-c3ccc(N4C[C@H](C(O)C(F)(F)F)OC4=O)cc3F)cn2)n1.O=P(O)(O)O` (stereo partly drawn) [compound 119, (R)-3-(3-fluoro-4-(6-(2-vinyl-2H-tetrazol-5-yl)pyridin-3-yl)phenyl)-5-(1-hydroxy-2-trifluoroethyl) oxazolidin-2-one phosphate], in that order: 0.7 µg/mL and 0.7 µg/mL.
Turning to `C=Cn1nnc(-c2ccc(-c3ccc(N4C[C@@H](C(OP(=O)(O)O)C(F)(F)F)OC4=O)cc3F)cn2)n1` (stereo partly drawn) [compound 120, (S)-3-(3-fluoro-4-(6-(2-vinyl-2H-tetrazol-5-yl)pyridin-3-yl)phenyl)-5-(1-hydroxy-2-trifluoroethyl) oxazolidin-2-one phosphate], the “Minimum inhibitory concentration (MIC50, μg/ml) MRSA” value in assay [1] stood at 0.2 µg/mL. In addition, in assay [2], the “Minimum inhibitory concentration (MIC50, μg/ml) VRE” value came to 0.2 µg/mL.
As for `C=Cn1nnc(-c2ccc(-c3ccc(N4C[C@H](C(C)O)OC4=O)cc3F)cn2)n1.O=P(O)(O)O` (stereo partly drawn) [compound 121, (R)-3-(3-fluoro-4-(6-(2-vinyl-2H-tetrazol-5-yl)pyridin-3-yl)phenyl)-5-(1-hydroxyethyl) oxazolidin-2-one phosphate], the MIC50 in assay [1] and in assay [2] was 1.1 µg/mL in each case.
With `C=Cn1nnc(-c2ccc(-c3ccc(N4C[C@@H](C(C)O)OC4=O)cc3F)cn2)n1.O=P(O)(O)O` (stereo partly drawn) [compound 122, (S)-3-(3-fluoro-4-(6-(2-vinyl-2H-tetrazol-5-yl)pyridin-3-yl)phenyl)-5-(1-hydroxyethyl) oxazolidin-2-one phosphate], the MIC50 in assay [1] is 1 µg/mL; in assay [2] it was 0.9 µg/mL.
Turning to `C=Cn1nnc(-c2ccc(-c3ccc(N4C[C@H](C(O)CC)OC4=O)cc3F)cn2)n1.O=P(O)(O)O` (stereo partly drawn) [compound 123, (R)-3-(3-fluoro-4-(6-(2-vinyl-2H-tetrazol-5-yl)pyridin-3-yl)phenyl)-5-(1-hydroxypropyl) oxazolidin-2-one phosphate], the MIC50 in assay [1] and in assay [2] was 0.3 µg/mL throughout.
Take `C=Cn1nnc(-c2ccc(-c3ccc(N4C[C@@H](C(O)CC)OC4=O)cc3F)cn2)n1.O=P(O)(O)O` (stereo partly drawn) [compound 124, (S)-3-(3-fluoro-4-(6-(2-vinyl-2H-tetrazol-5-yl)pyridin-3-yl)phenyl)-5-(1-hydroxypropyl) oxazolidin-2-one phosphate]: the MIC50 in assay [1] and in assay [2] was 0.2 µg/mL in each case.
On to `C=Cn1nnc(-c2ccc(-c3ccc(N4C[C@H](C(O)F)OC4=O)cc3F)cn2)n1.O=P(O)(O)O` (stereo partly drawn) [compound 125, (R)-3-(3-fluoro-4-(6-(2-vinyl-2H-tetrazol-5-yl)pyridin-3-yl)phenyl)-5-(hydroxyfluoromethyl) oxazolidin-2-one phosphate], for which the MIC50 in assay [1] and in assay [2] was 0.3 µg/mL each time.
On to `C=Cn1nnc(-c2ccc(-c3ccc(N4C[C@@H](C(O)F)OC4=O)cc3F)cn2)n1.O=P(O)(O)O` (stereo partly drawn) [compound 126, (S)-3-(3-fluoro-4-(6-(2-vinyl-2H-tetrazol-5-yl)pyridin-3-yl)phenyl)-5-(hydroxyfluoromethyl) oxazolidin-2-one phosphate], for which the MIC50 in assay [1] and in assay [2] was 0.7 µg/mL in each case.
